Results: PMC9248268 (Biochemical pharmacology, 2021)

Columns and labels:
[1] = biological target: T1, PTPN1 (PTP1B) phosphatase (Homo sapiens, UniProt P18031); experiment: inhibition of pNPP hydrolysis by recombinant PTPN1; assay type: biochemical
T1 sequence (P18031 1-435): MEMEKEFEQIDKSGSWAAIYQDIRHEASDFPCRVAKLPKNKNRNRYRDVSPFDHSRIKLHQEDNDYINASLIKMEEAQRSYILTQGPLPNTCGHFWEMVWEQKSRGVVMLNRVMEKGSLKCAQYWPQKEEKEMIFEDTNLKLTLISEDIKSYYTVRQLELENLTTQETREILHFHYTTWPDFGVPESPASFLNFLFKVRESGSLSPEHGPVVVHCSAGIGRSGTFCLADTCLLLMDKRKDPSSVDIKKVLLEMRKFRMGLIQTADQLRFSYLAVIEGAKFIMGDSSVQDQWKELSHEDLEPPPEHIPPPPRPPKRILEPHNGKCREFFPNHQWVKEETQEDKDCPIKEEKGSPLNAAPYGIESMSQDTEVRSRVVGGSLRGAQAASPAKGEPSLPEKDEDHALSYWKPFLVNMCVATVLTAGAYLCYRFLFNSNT

[2] = biological target: T2, recombinant human PTPRD phosphatase (Homo sapiens, UniProt P23468); experiment: inhibition of pNPP hydrolysis by recombinant PTPRD phosphatase
T2 sequence (P23468 1357-1612 limits assumed): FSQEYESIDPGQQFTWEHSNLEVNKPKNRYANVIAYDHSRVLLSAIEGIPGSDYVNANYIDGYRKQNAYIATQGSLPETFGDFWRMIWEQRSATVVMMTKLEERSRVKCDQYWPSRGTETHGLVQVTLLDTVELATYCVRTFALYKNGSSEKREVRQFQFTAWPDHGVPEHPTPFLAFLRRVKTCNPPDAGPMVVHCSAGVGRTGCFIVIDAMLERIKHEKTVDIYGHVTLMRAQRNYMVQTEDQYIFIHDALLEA

PTPRS phosphatase [3] = biological target: T3, PTPRS phosphatase (Homo sapiens, UniProt Q13332); experiment: inhibition of pNPP hydrolysis by recombinant PTPRS phosphatase; assay type: biochemical; settings: relative to 7-BIA
T3 sequence (Q13332 1393-1648 limits assumed): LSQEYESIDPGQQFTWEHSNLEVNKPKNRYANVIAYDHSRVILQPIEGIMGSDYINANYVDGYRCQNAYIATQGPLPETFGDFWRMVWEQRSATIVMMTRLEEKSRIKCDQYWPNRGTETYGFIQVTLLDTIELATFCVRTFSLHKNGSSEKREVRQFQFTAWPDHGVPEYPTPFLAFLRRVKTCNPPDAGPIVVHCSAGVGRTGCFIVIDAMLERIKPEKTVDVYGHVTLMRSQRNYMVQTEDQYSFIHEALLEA

[4] = absorption study, plasma levels in rats; assay type: in vivo; settings: male, Sprague Dawley, rat, 10 mg/kg
[5] = test system: other protein tyrosine phosphatases screened; experiment: screen at other protein tyrosine phosphatases; assay type: biochemical
[6] = oral tolerability study in mice; set-up: species or system wildtype C57BL/6J or PTPRD knockout mice; settings: mouse, in vivo
PTPRJ phosphatase = biological target: T4, PTPRJ phosphatase (Homo sapiens, UniProt Q12913); experiment: inhibition of pNPP hydrolysis by recombinant PTPRJ phosphatase; assay type: biochemical
T4 sequence (Q12913 997-1337 limits assumed): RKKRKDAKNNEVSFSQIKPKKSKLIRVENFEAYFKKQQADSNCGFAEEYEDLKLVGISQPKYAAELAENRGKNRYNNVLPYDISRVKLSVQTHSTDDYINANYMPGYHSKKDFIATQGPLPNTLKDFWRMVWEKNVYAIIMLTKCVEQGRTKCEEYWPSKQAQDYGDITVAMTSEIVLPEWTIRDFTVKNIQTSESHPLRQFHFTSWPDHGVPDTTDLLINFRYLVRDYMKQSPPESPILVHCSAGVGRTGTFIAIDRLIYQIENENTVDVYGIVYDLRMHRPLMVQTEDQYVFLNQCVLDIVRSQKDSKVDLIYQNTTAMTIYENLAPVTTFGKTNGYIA

PTPRF phosphatase [7] = experiment: inhibition of pNPP hydrolysis by recombinant PTPRF phosphatase; assay type: biochemical; settings: relative to 7-BIA
[8] = test system: sites of action (and side effects) of most marketed drugs; experiment: EUROFINS assays for sites of action of marketed drugs; settings: read-out: EC50 at EUROFINS sites of action of marketed drugs; any of these sites
PTPRF phosphatase [9] = settings: cited from earlier work
[10] = acute ascending doses or 2-week repeated doses up to 20 mg/kg; cited from earlier work
[11] = biological target: T2, recombinant human PTPRD phosphatase; settings: cited from earlier work
PTPRS phosphatase [12] = biological target: T3, PTPRS phosphatase; settings: cited from earlier work

In the case of COc1c(OCc2ccc(Oc3ccccc3)cc2)cc2c(c1C=O)CC(O)OC2=O (centres unmarked) [compound 40, 3-Hydroxy-6-methoxy-1-oxo-7-((4-phenoxybenzyl)oxy)isochromane-5-carbaldehyde], the “potency in inhibiting PTPN1/PTP1B (in words)” value [1] is reported as “relatively high potency”.

In the case of COc1cccc(COc2cc3c(c(C=O)c2OC)CC(O)OC3=O)c1 (centres unmarked) [compound 30, 3-Hydroxy-6-methoxy-7-((3-methoxybenzyl)oxy)-1-oxoisochromane-5-carbaldehyde], the “activity at PTPRD (in words)” value [2] is reported as “no improvement in PTPRD activity”.

With CCCCOc1cc2c(c(C=O)c1OCCCC)CC(O)OC2=O (centres unmarked) [compound 24] the “activity at PTPRD (in words)” value [2] was “activity was lost”.

With CCCCOc1cc2c(=O)occc2c(C=O)c1OC [compound 22] the “activity at PTPRD (in words)” value [2] was “activity was lost”.

For COc1c(OCC2CCCC2)cc2c(c1C=O)CC(O)OC2=O (centres unmarked) [compound 58, 7-Cyclopentylmethoxy-3-hydroxy-6-methoxy-1-oxo-isochroman-5-carbaldehyde], the “greater selectivity for PTPRD vs PTPRS than 7-BIA” value (PTPRS phosphatase [3]) was 1.6 fold, the half-life [4] was roughly 50 min and the concentration at 30 min ([4]; ip) was 577 ng/g. For the same compound, the concentration at 120 min ([4]; ip) was 10.3 ng/g, the concentration at 240 min ([4]; ip) was 1.84 ng/g and the concentration at 5 min ([4]; iv) was 24600 ng/g. It also gave a concentration at 30 min ([4]; iv) of 92.6 ng/g, a concentration at 240 min ([4]; iv) of 1.03 ng/g and a concentration at 30 min ([4]; po) of 82.4 ng/g. The concentration at 120 min ([4]; po) was 24.2 ng/g, the concentration at 240 min ([4]; po) was 4.62 ng/g and the “greater selectivity for PTPRD vs PTPN1/PTP1B than 7-BIA” value ([1]; relative to 7-BIA) was 1.8 fold. The “potency at other protein tyrosine phosphatases screened (in words)” value [5] was “no substantial potency”, the weight lost ([6]; 200 mg/kg) was 1.3 g and the weight lost ([6]; 400 mg/kg) was 3.4 g. The weight lost ([6]; 600 mg/kg) was 1.1 g, the weight lost ([6]; 1000 mg/kg) was 9 g and the “greater selectivity for PTPRD vs PTPRJ than 7-BIA” value (PTPRJ phosphatase; relative to 7-BIA) was 3.5 fold. The “greater selectivity for PTPRD vs PTPRF than 7-BIA” value (PTPRF phosphatase [7]) was 1.4 fold and the EC50 [8] was no less than 100 µM.

With COc1ccccc1COc1cc2c(c(C=O)c1OC)CC(O)OC2=O (centres unmarked) [compound 31] the “activity at PTPRD (in words)” value [2] was “no improvement in PTPRD activity”.

In the case of CCCCOc1cc2c(c(C=O)c1OC)CC(O)OC2=O (centres unmarked) [compound 1, 7-butoxy illudalic acid analog], the “activity at PTPRF phosphatase (in words)” value (PTPRF phosphatase [9]) is listed as “active”, the “potency at PTPRJ (in words)” value (PTPRJ phosphatase) is listed as “moderate potencies” and the “toxicities in mice (in words)” value [10] is listed as “no apparent toxicities”. The “activity at PTPRD phosphatase (in words)” value [11] was “active”, the “potency of inhibition of PTPRD phosphatase dephosphorylation of p-NPP (in words)” value [11] was “good potency” and the “activity at PTPRS phosphatase (in words)” value (PTPRS phosphatase [12]) was “active”.

For CCCCOc1cc2c(c(C=O)c1OCC)CC(O)OC2=O (centres unmarked) [compound 23], the “activity at PTPRD (in words)” value [2] was “activity was lost”.
